Laboratory results: patent US20250313549A1, “HERBICIDAL DERIVATIVES” (SYNGENTA CROP PROTECTION AG, priority 2021, published 2025)

Legend:
Type in all cases: in vivo
Setaria faberi (SETFA) [1] = assay: Pre-emergence test, herbicidal damage; conditions: 1000 g/ha, evaluated after 13 days
Zea mays (ZEAMX) [2] = assay: Pre-emergence test, herbicidal damage; conditions: 1000 g/ha, evaluated after 13 days
[3] = test system: Ipomoea hederacea (IPOHE); assay: Post-emergence test, herbicidal damage; conditions: sprayed after 8 days cultivation, 1000 g/ha, evaluated after 13 days
Procedure: (§1) Seeds of a variety of test species are sown in standard soil in pots (Amaranthus retoflexus (AMARE), Echinochloa crus-galli (ECHCG), Amaranthus palmeri (AMAPA), Setaria faberi (SETFA), Zea mays (ZEAMX), Ipomoea hederacea (IPOHE)). After 8 days cultivation under controlled conditions in a glasshouse (at 24° C./16° C., day/night; 14 hours light; 65% humidity), the plants are sprayed with an aqueous spray solution derived from the formulation of the technical active ingredient in acetone/water (50:50) solution containing 0.5% Tween 20 (polyoxyethylene sorbitan monolaurate, CAS RN 9005-64-5). Compounds are applied at 1000 g/ha unless otherwise stated. The test plants are then grown in a glasshouse under controlled conditions in a glasshouse (at 24° C./16° C., day/night; 14 hours light; 65% humidity) and watered twice daily. After 13 days the test is evaluated for the percentage damage caused to the plant. The biological activities are shown in the following table on a five-point scale (5=81-100%; 4=61-80%; 3=41-60%; 2=21-40%; 1=10-20%; 0=0%; -=not tested).

Zea mays (ZEAMX) [4] = assay: Post-emergence test, herbicidal damage; conditions: sprayed after 8 days cultivation, 1000 g/ha, evaluated after 13 days
Procedure: as §1

[5] = test system: Echinochloa crus-galli (ECHCG); assay: Post-emergence test, herbicidal damage; conditions: sprayed after 8 days cultivation, 1000 g/ha, evaluated after 13 days
Procedure: as §1

Setaria faberi (SETFA) [6] = assay: Post-emergence test, herbicidal damage; conditions: sprayed after 8 days cultivation, 1000 g/ha, evaluated after 13 days
Procedure: as §1

[7] = test system: Amaranthus palmeri (AMAPA); assay: Post-emergence test, herbicidal damage; conditions: sprayed after 8 days cultivation, 1000 g/ha, evaluated after 13 days
Procedure: as §1

[8] = test system: Amaranthus retoflexus (AMARE); assay: Post-emergence test, herbicidal damage; conditions: sprayed after 8 days cultivation, 1000 g/ha, evaluated after 13 days
Procedure: as §1

[9] = test system: Amaranthus retoflexus (AMARE); assay: Pre-emergence test, herbicidal damage; conditions: 1000 g/ha, evaluated after 13 days
[10] = test system: Ipomoea hederacea (IPOHE); assay: Pre-emergence test, herbicidal damage; conditions: 1000 g/ha, evaluated after 13 days
[11] = test system: Amaranthus palmeri (AMAPA); assay: Pre-emergence test, herbicidal damage; conditions: 1000 g/ha, evaluated after 13 days
[12] = test system: Echinochloa crus-galli (ECHCG); assay: Pre-emergence test, herbicidal damage; conditions: 1000 g/ha, evaluated after 13 days

Row | Compound | percentage damage caused to the plant, SETFA (Setaria faberi (SETFA) [1]) | percentage damage caused to the plant, ZEAMX (Zea mays (ZEAMX) [2]) | percentage damage caused to the plant, IPOHE [3] | percentage damage caused to the plant, ZEAMX (Zea mays (ZEAMX) [4]) | percentage damage caused to the plant, ECHCG [5] | percentage damage caused to the plant, SETFA (Setaria faberi (SETFA) [6]) | percentage damage caused to the plant, AMAPA [7] | percentage damage caused to the plant, AMARE [8] | percentage damage caused to the plant, AMARE [9] | percentage damage caused to the plant, IPOHE [10] | percentage damage caused to the plant, AMAPA [11] | percentage damage caused to the plant, ECHCG [12]
1 | CCOC(=O)c1nn(-c2ccnc(Br)c2)c2cccc(Br)c2c1=O [Compound 10, ethyl 5-bromo-1-(2-bromo-4-pyridyl)-4-oxo-cinnoline-3-carboxylate] | 0 (0=0%) | 0 (0=0%) | 0 (0=0%) | 0 (0=0%) | 1 (1=10-20%) | 0 (0=0%) | 3 (3=41-60%) | 3 (3=41-60%) | 1 (1=10-20%) | 0 (0=0%) | 0 (0=0%) | 
2 | CCOC(=O)c1nn(-c2ncc(Cl)cn2)c2cccc(Br)c2c1=O [Compound 34, ethyl 5-bromo-1-(5-chloropyrimidin-2-yl)-4-oxo-cinnoline-3-carboxylate] | 1 (1=10-20%) | 0 (0=0%) | 3 (3=41-60%) | 1 (1=10-20%) | 0 (0=0%) | 2 (2=21-40%) | 1 (1=10-20%) | 3 (3=41-60%) | 0 (0=0%) | 0 (0=0%) | 1 (1=10-20%) | 0 (0=0%)
3 | CCOC(=O)c1nn(-c2cc(OC)ncn2)c2cccc(Br)c2c1=O [Compound 32, ethyl 5-bromo-1-(6-methoxypyrimidin-4-yl)-4-oxo-cinnoline-3-carboxylate] | 1 (1=10-20%) | 0 (0=0%) | 1 (1=10-20%) | 0 (0=0%) | 0 (0=0%) | 0 (0=0%) | 1 (1=10-20%) | 1 (1=10-20%) | 0 (0=0%) | 0 (0=0%) | 0 (0=0%) | 1 (1=10-20%)
4 | CCOC(=O)c1nn(-c2ccc(F)nc2)c2cccc(Br)c2c1=O [Compound 23, ethyl 5-bromo-1-(6-fluoro-3-pyridyl)-4-oxo-cinnoline-3-carboxylate] | 4 (4=61-80%) | 0 (0=0%) | 0 (0=0%) | 1 (1=10-20%) | 4 (4=61-80%) | 4 (4=61-80%) | 0 (0=0%) | 0 (0=0%) | 0 (0=0%) | 1 (1=10-20%) | 0 (0=0%) | 5 (5=81-100%)
5 | CCOC(=O)c1nn(-c2ccc(OC(F)F)nc2)c2cccc(Br)c2c1=O [Compound 36, ethyl 5-bromo-1-[6-(difluoromethoxy)-3-pyridyl]-4-oxo-cinnoline-3-carboxylate] | 1 (1=10-20%) | 1 (1=10-20%) | 1 (1=10-20%) | 0 (0=0%) | 0 (0=0%) | 1 (1=10-20%) | 0 (0=0%) | 2 (2=21-40%) | 0 (0=0%) | 0 (0=0%) | 1 (1=10-20%) | 0 (0=0%)
6 | N#Cc1cccc2c1c(=O)c(C(=O)O)nn2-c1cncnc1 [Compound 1, 5-cyano-4-oxo-1-pyrimidin-5-yl-cinnoline-3-carboxylic acid] | 0 (0=0%) | 0 (0=0%) | 1 (1=10-20%) | 1 (1=10-20%) | 2 (2=21-40%) | 1 (1=10-20%) | 1 (1=10-20%) | 2 (2=21-40%) | 0 (0=0%) | 0 (0=0%) | 0 (0=0%) | 2 (2=21-40%)
7 | CCOC(=O)c1nn(-c2ccc(OC(F)F)nc2)c2cccc(C(C)=O)c2c1=O [Compound 37, ethyl 5-acetyl-1-[6-(difluoromethoxy)-3-pyridyl]-4-oxo-cinnoline-3-carboxylate] |  | 4 (4=61-80%) | 2 (2=21-40%) |  | 4 (4=61-80%) | 1 (1=10-20%) | 0 (0=0%) | 1 (1=10-20%) | 0 (0=0%) | 0 (0=0%) | 0 (0=0%) | 4 (4=61-80%)
